Data from patent US10149809B2, “Skin aging inhibitor and concentrate of resveratrol 3-O-α-glucoside” (priority 2014, dated 2018).

Assays:
[1] = test system: matrix metalloproteinase 1 (MMP1) gene; experiment: MMP1 gene expression in normal human dermal fibroblasts; format: cell-based; conditions: 0.001 wt %, 24 hours, control = 100%
Description: (§1) Using normal human dermal fibroblasts, the effect of resveratrol 3-O-α-glucoside on matrix metalloproteinase 1 (MMP1) and 9 (MMP9) genes in the dermis was investigated.
(§2) Normal human dermal fibroblasts were seeded into 12-well culture plates at 9×10^4 cells per well. As the medium, 10 vol % FBS (Fetal Bovine Serum)-containing DMEM medium (basal medium) was used, and the cells were preincubated in 5% CO2 at 37° C. for 24 hours. The medium was removed and then replaced with a basal medium supplemented with 0.001 wt % of resveratrol 3-O-α-glucoside, and the cells were cultured in 5% CO2 at 37° C. After 24 hours, total RNA was extracted from the cells, and the levels of expression of the MMP1 and MMP9 genes were quantified by real time PCR. As a control group, cells were cultured without resveratrol 3-O-α-glucoside, and total RNA collected from these cells was used.
(§3) Taking as 100% the level of expression of each of the MMP1 and MMP9 genes for the control group, a relative ratio of the expression level of each of the MMP1 and MMP9 genes for the resveratrol 3-O-α-glucoside-supplemented group (MMP1 and MMP9 gene expression ratios, %) was determined. In the measurement of the expression level of each of the MMP1 and MMP9 genes, GAPDH (glyceraldehyde 3-phosphate dehydrogenase) was used for internal standard correction.

[2] = test system: matrix metalloproteinase 9 (MMP9) gene; experiment: MMP9 gene expression in normal human dermal fibroblasts; format: cell-based; conditions: 0.001 wt %, 24 hours, control = 100%
Description: as §1, §2, §3

IL-1β gene = experiment: Anti-inflammatory effect: IL-1β gene expression after Poly I:C-induced inflammation; format: cell-based; conditions: normal human epidermal keratinocytes, Poly I:C 1 μg/mL 9 hours, then 0.001 wt % for 15 hours; control = 100%, comparative group (Poly I:C only) 1210
Description: Normal human epidermal keratinocytes were seeded into 12-well culture plates at 5×10^4 cells per well. As the medium, EpiLife KG-2 medium supplemented with insulin, the human […] growth factor (hEGF), hydrocortisone, anti-microbial agents, and bovine pituitary extract (BPE) was used (basal medium), and the cells were preincubated in 5% CO2 at 37° C. for 48 hours. Further, the cells were incubated for additional 48 hours in a medium obtained by removing hydrocortisone only from the basal medium (assay medium). Next, the medium was replaced with an inflammation-inducing medium obtained by supplementing the assay medium with Poly I:C (double strand of inosine ribonucleotide and cytidine ribonucleotide strands) to a concentration of 1 μg/mL, and the cells were cultured for 9 hours, thus preparing an inflammation model. […] After the culture, total RNA was extracted from the cells, and the level of expression of the proinflammatory cytokine IL-1β gene was quantified by real time PCR. […]
Taking as 100% the level of expression of the IL-1β gene for the control group, a relative ratio of the expression level of the IL-1β gene for each of the comparative group and the resveratrol 3-O-α-glucoside-supplemented group (IL-1β gene expression ratio, %) was calculated. […]

[3] = test system: hyaluronidase (from bovine testes); experiment: Hyaluronidase inhibitory effect; format: biochemical; conditions: pH 4.0, 37° C., 40 minutes
Description: The following sample solution, enzyme solution, and hyaluronic acid solution were prepared.
Resveratrol 3-O-α-glucoside was dissolved in a 0.2 M acetate buffer solution (pH 4.0) to a concentration of 0.025 or 0.1 wt %, and the resulting solution was used as a sample solution.
In 1.5 mL of a 0.2 M acetate buffer solution (pH 4.0), 7400 units of hyaluronidase (from bovine testes; Sigma-Aldrich Co. LLC.) were dissolved, and the resulting solution was used as the enzyme solution.
In 12.5 mL of a 0.2 M acetate buffer solution (pH 4.0), 10 mg of sodium hyaluronate (from crista galli; Wako Pure Chemical Industries, Ltd.) was dissolved, and the resulting solution was used as the hyaluronic acid solution.
Using each of the solutions prepared as above, the hyaluronidase inhibitory effect was evaluated in accordance with the following procedures. One-hundred microliters of the sample solution, 50 μL of the enzyme solution, and 200 μL of the hyaluronic acid solution were mixed and reacted at 37° C. for 40 minutes. Then, 100 μL each of a 0.4 M aqueous solution of sodium hydroxide and a 1 M aqueous solution of potassium borate were added to the mixture, and the reaction was stopped. […] The absorbance at 585 nm was subsequently measured. From the measured value of absorbance, the hyaluronidase inhibition ratio was determined in accordance with the equation shown below. […]

[4] = Non-Patent Literature 3; cited from earlier work

Compound | MMP1 Gene Expression Ratio (%) [1] [%] | MMP9 Gene Expression Ratio (%) [2] [%] | IL-1β Gene Expression Ratio (%) (IL-1β gene) | Hyaluronidase Inhibition Ratio (%) ([3]; 0.025 wt % in the sample solution) | Hyaluronidase Inhibition Ratio (%) ([3]; 0.1 wt % in the sample solution) | water solubility [4] | water solubility relative to that of resveratrol [4]
OC[C@H]1O[C@H](Oc2cc(O)cc(C=Cc3ccc(O)cc3)c2)[C@H](O)[C@@H](O)[C@@H]1O [Resveratrol 3-O-α-Glucoside, resveratrol 3-O-α-glucoside] | 85 | 45 | 885 | 7.6 | 20.6 |  | 
OC[C@H]1O[C@@H](Oc2cc(O)cc(/C=C/c3ccc(O)cc3)c2)[C@H](O)[C@@H](O)[C@@H]1O [Resveratrol 3-O-β-Glucoside, resveratrol 3-O-β-glucoside] |  |  |  |  |  | approximately 400 μg/mL | approximately 10 fold
